From publication PMC12040169 (PLOS Biology, 2025) come the findings set out here.

As usually defined, the viability is a read-out of living cells in per cent, often relative to untreated cells.

One data set can be described thus: in vitro. The following applies: human, hela cells, % viability.
`COc1ccc2[nH]cc(CCNC(=O)c3ccco3)c2c1` [CBK116204]: the viability at 28.5 h, 10 µM turned out to be 96.5%.
The same measure, in the same setting: with `COc1cc([N+](=O)[O-])ccc1NC(=O)CN(C)S(=O)(=O)c1ccc2ccccc2c1` [CBK267387] the figure was 97.5%; with `O=C(O)CCNC1=Nc2ccccc2CCC1` [CBK278160], 101%.
Still for that read-out and setting: with `CN(C)CCCn1c(NCc2ccc3c(c2)OCO3)nc2ccccc21` [CBK278273C] the figure was 94.4%; with `Cc1cc2c(cc1NC(=O)[C@@H]1C[C@@H]3C=C[C@H]1C3)n(C)c(=O)n2C` [CBK281689], 106%; with `O=C(O)CCC(=O)Nc1ccc(C(=O)O)cc1` [CBK260952], 96.6%.
As for `O=C(N/N=C\c1ccc([N+](=O)[O-])o1)c1nc(-c2ccccc2)cc(-c2ccccc2)n1` [CBK261958], the viability at 28.5 h, 10 µM was 95.5%.
Same read-out and setting: the result for `Cc1noc(C)c1C(=O)N1CCN(Cc2ccco2)C[C@@H]1C(C)C` [CBK284248] reads 93.9%; that for `O=C1CCC(=O)N1CCOc1nccnc1OC1CCN(CCc2c[nH]c3ccccc23)CC1` [CBK084355], 94.6%.
The same measure, in the same setting: with `Cc1cc2c(s1)c1cnn(CC(=O)NC(C)(C)C)c(=O)c1n2C` [CBK284158] the figure was 86.6%.
Same read-out and setting: the result for `CCOC(=O)c1c(NC(=S)NC(=O)c2cccc(Cl)c2)sc2c1CCCC2` [CBK264045] reads 88.2%; that for `CC(C)[C@@H](CO)Nc1cncc(-c2cccc3ccccc23)n1` [CBK065566], 98.4%.
With `O=C(CCc1cccnc1)N1CCC(F)CC1` [CBK200275], the viability at 28.5 h, 10 µM was determined as 103%.
Still for that read-out and setting: with `O=C(O)c1cccc(NCC(=O)c2ccccc2)c1` [CBK287163] the figure was 88.8%.
On the same count and under the same terms, the result for `Cn1cc(NC(=O)N2CCCN(Cc3ccccn3)CC2)nn1` [CBK307034] reads 86.8%; that for `CC(=O)N1CCC[C@H]2NC(=O)CNC(=O)C3(C/C=C/C[C@H]21)CCN(C(=O)CCC(=O)O)CC3` [CBK292174], 85%; that for `CCCc1[nH]nc(O)c1Cc1ccccc1-c1ccccc1` [CBK075034], 97.2%.
As for `FC(F)(F)c1ccnc(OCCN2CCNCC2)n1` [CBK113297], the viability at 28.5 h, 10 µM came out at 97.5%.
As for `CN(C)CCCOC(=O)c1cccnc1Cl` [CBK027436], the viability at 28.5 h, 10 µM came out at 111%.
As for `CC(C)C(CO)NC(=O)C1(Cc2ccc(-c3ccc(F)c(F)c3)cc2)CCOCC1` (stereo not drawn) [CBK286525], the viability at 28.5 h, 10 µM is 87.7%.
As for `COc1ccc(CNC(=O)c2cc(S(=O)(=O)N3CCCC3)cn2C)cc1` [CBK304637], the viability at 28.5 h, 10 µM stood at 95.2%.
Consider `N#Cc1ccnc(N2CCN(CC(=O)NCC(F)(F)F)CC2)c1` [CBK305042], for which the viability at 28.5 h, 10 µM worked out at 95.1%.
Same read-out and setting: the result for `O=C(Nc1ccc(F)cc1)N1Cc2nc[nH]c2C[C@H]1c1nc(-c2ccc(F)cc2)no1` [CBK288970] reads 95%.
Still for that read-out and setting: with `CC1(C)[C@H](Cc2cc(CO)on2)C[C@@H]1N(Cc1ccncc1)Cc1ccncc1` [CBK289233] the figure was 98.2%; with `COc1ccc(-n2ncc3c2CC(C)(C)CC3NC(=O)C2CC2)cc1` (stereo not drawn) [CBK282337], 91.1%.
On the same count and under the same terms, with `CC(C)[C@H](CO)Nc1cncc(-c2ccccc2CO)n1` [CBK065326] the figure was 88.6%.
On to `Cc1ccc2nc(-c3ccc4c(c3)CC(C)N4S(C)(=O)=O)cn2c1` (stereo not drawn) [CBK285184], for which the viability at 28.5 h, 10 µM was 79.4%.
Still for that read-out and setting: with `CNC(=O)c1ccc(-c2ccc3[nH]ccc3c2)nc1N(C)C` [CBK106146] the figure was 90.9%; with `COc1ccc(/C(N)=N/OC(=O)CN(C)S(=O)(=O)c2ccccc2)cc1` [CBK267683], 93%; with `CCCC(CCC)C(=O)Nc1ccc(NC(=O)c2ccco2)c(C)c1` [CBK058263], 91.9%.
Same read-out and setting: the result for `O=C(Nc1ccc(Cl)cc1)NC1(C(=O)NCc2ccncc2)CCCCC1` [CBK174259] reads 100%; that for `c1ccc(CSc2nnc3ccc(-c4ccncc4)nn23)cc1` [CBK287681], 86.5%.
The same measure, in the same setting: the result for `O=[N+]([O-])c1ccccc1/C=N/Nc1nnn[nH]1` [CBK260971] reads 106%; that for `CN(C)CC(=O)N1Cc2cccc3c2c(cn3S(=O)(=O)c2ccccc2)C1` [CBK155548T], 94.5%.
On to `CCOC(=O)N1CCN(S(=O)(=O)c2ccc3c(c2)oc(=O)n3CC)CC1` [CBK305055], for which the viability at 28.5 h, 10 µM was 99%.
Still for that read-out and setting: with `COC(=O)c1sccc1NS(=O)(=O)c1ccc(C(F)(F)F)cc1[N+](=O)[O-]` [CBK004510] the figure was 92.9%; with `CCc1ccc(CNC(=O)Cn2nnc(-c3ccc(CN4CCC(C)CC4)nc3SC)n2)cc1` [CBK156205T], 90.3%.
The same measure, in the same setting: with `CCCCc1ccc(-c2ccc3ccc(NC(=O)C(C)C)nc3n2)cc1` [CBK073668] the figure was 93%.
The same measure, in the same setting: with `c1ccc(-c2cccc(-c3cc(Nc4ccc(N5CCOCC5)cc4)ncn3)c2)cc1` [CBK090930] the figure was 90.2%; with `CCn1cc(C2CN(S(=O)(=O)c3cc(C)c(OC)c(C)c3)CCO2)cn1` (stereo not drawn) [CBK304224], 85.8%.
For `O=C(O)CCCC(=O)N1CCN2C(=O)c3cc(Br)ccc3NC(=O)[C@@H]2C1` [CBK289581], the viability at 28.5 h, 10 µM was 100%.
On the same count and under the same terms, with `O=C(NCc1nnc(-c2cccs2)o1)C1c2ccccc2Oc2ccccc21` [CBK286297] the figure was 94.8%; with `CN(C)c1cc(CNC(=O)c2cc3ccccc3oc2=O)ccn1` [CBK297917], 88.8%.
The same measure, in the same setting: the result for `CC(C)Oc1ccc(C(=O)C2=C(O)C(=O)N(CCN(C)C)C2c2ccncc2)cc1` (stereo not drawn) [CBK264907] reads 90.3%.
Same read-out and setting: the result for `Fc1ccc2[nH]c3c(c2c1)CCN1C(c2ccncc2)N2CCC31CC2` (stereo not drawn) [CBK284437] reads 78.6%; that for `O=C1c2ccccc2C(=O)N1CCc1nc2ccccc2c(=O)n1-c1nc2ccccc2s1` [CBK266358], 122%; that for `Nc1nc(CC(=O)N2CCCCC2)cs1` [CBK049866], 97.9%.
For the compound `N=C1OC2CSCC2N1C(=O)Cc1ccc(F)cc1` (stereo not drawn) [CBK284515], the viability at 28.5 h, 10 µM is 103%.
Still for that read-out and setting: the result for `CCC(CN1CCCC1)NC(=O)Cc1cc(C)ccc1OC` (stereo not drawn) [CBK282759] reads 83.2%; that for `CC(=O)Nc1ccc(F)c(NC(=O)NCCN2CCCOC2=O)c1` [CBK307166], 92.8%.
On to `COc1ncc(-c2cc(N3CCN(c4ccccn4)CC3)ncn2)c(OC)n1` [CBK037707], for which the viability at 28.5 h, 10 µM was found to be 102%.
Still for that read-out and setting: with `CCN(CC)C(=O)CCn1c(-c2cccnc2)cc2cccnc21` [CBK282160] the figure was 106%; with `O=C(CSS(=O)(=O)O)NCc1ccccc1` [CBK260897N], 105%; with `O=C(c1nn2c(C(F)(F)F)cc(-c3ccccc3)nc2c1Br)N1CCCCC1` [CBK051497], 97.6%.
The same measure, in the same setting: the result for `COCCN1C(=O)c2ccc(C(=O)Nc3cc(C(=O)O)cc(C(=O)O)c3)cc2C1=O` [CBK268444] reads 96.5%; that for `Cc1nc(C2CCN(C(=O)c3ccccn3)CC2)c2sccn12` [CBK282238], 91.6%; that for `Cc1cc(C(=O)Oc2cccc(NC3=NS(=O)(=O)c4ccccc43)c2)c2ccccc2n1` [CBK265302], 96.5%.
Take `O=C(Nc1ccc(F)cc1)C1CC(=O)n2c(nc3ccccc32)N1` (stereo not drawn) [CBK287282]: the viability at 28.5 h, 10 µM amounted to 101%.
Consider `CC(CNC(=O)C1CCCC1)N1CCc2ccccc2C1` (stereo not drawn) [CBK304555], for which the viability at 28.5 h, 10 µM worked out at 94.2%.
Still for that read-out and setting: with `CC(C)(C)c1cc(CN(Cc2cc(C(C)(C)C)c(O)c(C(C)(C)C)c2)/N=C\c2ccccc2O)cc(C(C)(C)C)c1O` [CBK261990] the figure was 101%; with `CN(C)c1cccc(-c2cncc(Nc3ccc(Cl)cc3)n2)c1` [CBK065738], 98.8%; with `Cc1nnc(SCc2cc(=O)nc(Nc3nc(C)c4ccccc4n3)[nH]2)s1` [CBK266549], 103%.
The same measure, in the same setting: the result for `CC1=NN(c2cccc(S(=O)(=O)O)c2C(=O)Nc2ccccc2)C(=O)C1` [CBK017343] reads 98.4%.
The same measure, in the same setting: the result for `CN(Cc1ccccc1N1CCOCC1)C(=O)c1ccc2ncsc2c1` [CBK296692] reads 108%.
Consider `COc1ccc(N2C(=O)C(CC(=O)Nc3ccc(F)cc3)N(Cc3ccc4c(c3)OCO4)C2=O)cc1` (stereo not drawn) [CBK266515], for which the viability at 28.5 h, 10 µM is 97%.
Consider `O=S(=O)(c1cc(Cl)sc1Cl)N1CCN(Cc2ccc3c(c2)OCO3)CC1` [CBK074743], for which the viability at 28.5 h, 10 µM came to 92.6%.
On the same count and under the same terms, the result for `COc1ccc2cc(C(=O)NCCn3ccnc3C)n(C)c2c1` [CBK282544] reads 94.1%; that for `O=C(NCCc1cccs1)Nc1ccccc1` [CBK269917], 88.7%; that for `Cc1cccc(OC(C)C(=O)Nc2ccccc2C(=O)N2CCCCC2)c1` (stereo not drawn) [CBK269960], 85.4%.
`O=C(O)Cc1ccc(NC(=O)c2cccc(NC(=O)c3ccco3)c2)cc1` [CBK268606]: the viability at 28.5 h, 10 µM came out at 96.7%.
Still for that read-out and setting: the result for `CNC(=O)C1CCCN1C(=O)c1nnn(Cc2ccc(F)cc2F)c1C` (stereo not drawn) [CBK306496] reads 93.2%; that for `O=C(NCCc1ccc(O)cc1)c1ccc2[nH]ccc2c1` [CBK149063], 89.5%; that for `COc1nc(Cl)nc(Oc2ccc(F)cc2)n1` [CBK011279], 122%.
Regarding `Cc1noc(C)c1NC(=O)c1c(-c2ccccc2)noc1C` [CBK200314], the viability at 28.5 h, 10 µM was determined as 91.8%.
Still for that read-out and setting: with `CN1CCN(c2ccc(C(=O)N3CCC(F)CC3)cc2)CC1` [CBK200265] the figure was 109%.
As to `CCC(C(=O)O)c1ccc(-n2sc3ccccc3c2=O)cc1` (stereo not drawn) [CBK011773], the viability at 28.5 h, 10 µM was 105%.

Staying with this data set, now noted: human, hela cells, % viability, bulk resorufin, single well.
As to `O=C(Cn1cc(/C=C2\C(=O)NC(=S)N(c3cccc(F)c3)C2=O)c2ccccc21)Nc1ccccc1` [CBK265152], the viability at 28.5 h, 10 µM stood at 106%.
Regarding `COc1ccc2c(c1)COC1(CCN(C(=O)CC(C)(C)CC(=O)O)CC1)O2` [CBK060855], the viability at 28.5 h, 10 µM amounted to 90.3%.
